Measurements as given in US10858360B2, “Tricyclic gyrase inhibitors” (priority 2011, dated 2020).
In brackets after ≈: the same amount, converted by molar mass. Where two headings read alike, the source gives them in different places.

Assays:
[1] = test system: E. coli ATCC 25922; test: MIC, E. coli ATCC 25922; format: cell-based; details: for MIC: Escherichia coli, ATCC25922, E. coli
[2] = test system: S. aureus ATCC 13709; test: MIC, S. aureus ATCC 13709 (Alamar Blue broth microdilution); format: cell-based; details: for MIC: Staphylococcus aureus, ATCC13709, S. aureus
[3] = Alamar Blue read after overnight incubation at 35° C.
[4] = E. coli, Alamar Blue read after overnight incubation at 35° C.
[5] = S. aureus, Alamar Blue read after overnight incubation at 35° C.

Structure (SMILES)	MIC [1, 3] [µg/mL]	MIC [2, 3] [µg/mL]	MIC Ec [1, 4] [µg/mL]	MIC Sa [2, 5] [µg/mL]	other results
CNc1cc(Cl)cc2c1[nH]c1nc(Oc3cnc(C)nc3)nc(N3CC4CCCNC4C3)c12 (stereo not drawn) [6.13]	–	–	–	–	MIC Ec [1]: ≤0.5 µg/mL; MIC Sa [2]: ≤0.5 µg/mL
CNc1c(F)ccc2c1[nH]c1nc(Oc3cnc(C)nc3)nc(N3CC[C@@H](N)C3)c12 [6.01]	1 (≈ 2.45 µM)	≤ 0.5	–	–	–
CNc1cc(F)cc2c1[nH]c1nc(Oc3cnc(C4CCC4)nc3)nc(N3CC4CC(N)C4C3)c12 (stereo not drawn) [4.285]	≤ 0.5	≤ 0.5	–	–	–
CNc1cc(F)c(C)c2c1[nH]c1nc(Oc3cnc(C)nc3)nc(NCCCN)c12 [6.21]	–	–	–	–	MIC Ec [1]: >16 µg/mL; MIC Sa [2]: >16 µg/mL
N[C@@H]1CCN(c2nc(Sc3cnc4ccc[n+]([O-])c4c3)nc3[nH]c4c(Cl)cccc4c23)C1 [1.4]	64 (≈ 138 µM)	32 (≈ 69 µM)	–	–	–
CNc1cc(F)cc2c1[nH]c1nc(Oc3cnc(C(C)(C)C)nc3)nc(N3CC4C(N)C4C3)c12 (stereo not drawn) [4.314]	≤ 0.5	≤ 0.5	–	–	–
CNc1cc(F)cc2c1[nH]c1nc(Oc3ccc(C#N)nc3)nc(N3CC4CC(N)C4C3)c12 (stereo not drawn) [4.332]	–	–	≤0.5	≤0.5	–
CNc1cc(Cl)cc2c1[nH]c1nc(Oc3cncnc3)nc(N3CCC4(CC4N)C3)c12 (stereo not drawn) [6.11]	–	–	–	–	MIC Ec [1]: ≤0.5 µg/mL; MIC Sa [2]: ≤0.5 µg/mL
CNc1cc(F)cc2c1[nH]c1nc(Oc3cnc4c(c3)ncn4C3CC3)nc(N3CC4C[C@@H](N)C4C3)c12 (stereo partly drawn) [4.363]	1 (≈ 2 µM)	≤ 0.5	–	–	–
CNc1cc(F)cc2c1[nH]c1nc(Oc3cnc(SC)nc3)nc(N3CCC(N)C3)c12 (stereo not drawn) [4.199]	–	–	≤0.5	≤0.5	–
CNc1cc(F)cc2c1[nH]c1nc(Oc3cnc(C)nc3)nc(N3CC4CNC4C3)c12 (stereo not drawn) [4.067]	≤ 0.5	≤ 0.5	–	–	–
CNc1cccc2c1[nH]c1nc(Oc3ccc[n+]([O-])c3)nc(N3CC4C(N)C4C3)c12 (stereo not drawn) [3.30]	16 (≈ 39.7 µM)	16 (≈ 39.7 µM)	–	–	–
CNc1cc(F)cc2c1[nH]c1nc(Oc3cnc(C4CC4)nc3)nc(N3CC4NCCCC43)c12 (stereo not drawn) [4.247]	8 (≈ 17.4 µM)	1 (≈ 2.17 µM)	–	–	–
CNc1cc(F)cc2c1[nH]c1nc(Oc3cncc(OC)c3)nc(N3C[C@H](N)C4(CC4)C3)c12 [4.165]	1 (≈ 2.22 µM)	≤ 0.5	–	–	–
CNc1cc(F)cc2c1[nH]c1nc(Oc3cnc(C)nc3)nc(N3CCCC(C)(N)C3)c12 (stereo not drawn) [4.088]	–	–	1 (≈ 2.29 µM)	≤0.5	–
CNc1cc(F)cc2c1[nH]c1nc(Oc3cnc(N4CCOCC4)nc3)nc(N3CCC(CN)C3)c12 (stereo not drawn) [4.215]	4 (≈ 8.1 µM)	≤ 0.5	–	–	–
CNc1cc(F)cc2c1[nH]c1nc(Oc3cnc(C(N)=O)nc3)nc(N3C[C@H](N)C4(CC4)C3)c12 [4.375]	4 (≈ 8.63 µM)	≤ 0.5	–	–	–
CNc1cc(F)cc2c1[nH]c1nc(Oc3cnc(C)nc3)nc(N3C[C@H](N)[C@@H](O)C3)c12 [4.136]	–	–	8 (≈ 18.8 µM)	2 (≈ 4.71 µM)	–
COc1cccc2c1[nH]c1nc(Sc3cnc4nccnc4c3)nc(N3CC4C(N)C4C3)c12 (stereo not drawn) [1.76]	> 64	1 (≈ 2.19 µM)	–	–	–
CNc1cc(F)cc2c1[nH]c1nc(Oc3cnc4ccoc4c3)nc(N3CC(N)C4(CC4)C3)c12 (stereo not drawn) [4.292]	–	–	≤0.5	≤0.5	–
CNc1cccc2c1[nH]c1nc(Oc3cnc(C)nc3)nc(N3C[C@@H](N)C4(CC4)C3)c12 [3.48]	8 (≈ 19.2 µM)	2 (≈ 4.8 µM)	–	–	–

Structure (SMILES)	MIC [1, 3] [µg/mL]	MIC [2, 3] [µg/mL]	MIC Ec [1, 4] [µg/mL]	MIC Sa [2, 5] [µg/mL]	other results
CNc1cc(F)cc2c1[nH]c1nc(Oc3cnc(C)nc3)nc(N3CC(N)C(C(F)(F)F)C3)c12 (stereo not drawn) [4.436]	> 16	≤ 0.5	–	–	–
CNc1cc(F)cc2c1[nH]c1nc(Oc3cnc(C(C)C)nc3)nc(N3CCC4(CC4N)C3)c12 (stereo not drawn) [4.235]	≤ 0.5	≤ 0.5	–	–	–
CNc1cccc2c1[nH]c1nc(Oc3cncnc3)nc(N3CC(N)C4(CC4)C3)c12 (stereo not drawn) [3.45]	≤ 0.5	≤ 0.5	–	–	–
CNc1cc(F)cc2c1[nH]c1nc(Oc3cnc(N4CC(C)(N)C4)nc3)nc(N3C[C@H](N)C4(CC4)C3)c12 [4.340]	–	–	2 (≈ 3.96 µM)	1 (≈ 1.98 µM)	–
NC1C2CN(c3nc(Sc4cnc5cccnc5c4)nc4[nH]c5c(NC6CC6)cc(F)cc5c34)CC12 (stereo not drawn) [1.1]	64 (≈ 128 µM)	4 (≈ 8.02 µM)	–	–	–
Cc1ncc(Oc2nc(N3CC(N)C4(CC4)C3)c3c(n2)[nH]c2c(N)cc(F)cc23)cn1 (stereo not drawn) [2.9]	–	–	16 (≈ 38.1 µM)	16 (≈ 38.1 µM)	–
CNc1cccc2c1[nH]c1nc(Oc3cnc4ccoc4c3)nc(N3CC4C(N)C4C3)c12 (stereo not drawn) [3.23]	2 (≈ 4.68 µM)	≤ 0.5	–	–	–
CNc1cc(F)cc2c1[nH]c1nc(Oc3cnc4[nH]cnc4c3)nc(N3CC4CCNC4C3)c12 (stereo not drawn) [4.312]	> 16	16 (≈ 34.8 µM)	–	–	–
CNc1cccc2c1[nH]c1nc(Sc3cnc4cccnc4c3)nc(N3CC4CNCC4C3)c12 (stereo not drawn) [1.55]	8 (≈ 17.1 µM)	1 (≈ 2.13 µM)	–	–	–
CNc1cc(F)cc2c1[nH]c1nc(Oc3cnc(C)nc3)nc(N3CC(N)C(C(=O)OC)C3)c12 (stereo not drawn) [4.437]	1 (≈ 2.14 µM)	≤ 0.5	–	–	–
CNc1cccc2c1[nH]c1nc(Oc3ccc4nccnc4c3)nc(N3CC4C(N)C4C3)c12 (stereo not drawn) [3.31]	8 (≈ 18.2 µM)	2 (≈ 4.56 µM)	–	–	–
CNc1cccc2c1[nH]c1nc(Sc3cnc4cccnc4c3)nc(N3C[C@H](N)C[C@H]3C)c12 [1.61]	64 (≈ 140 µM)	8 (≈ 17.5 µM)	–	–	–
CNc1cc(F)cc2c1[nH]c1nc(Oc3cnc(N4CC(S(=O)(=O)CC5CC5)C4)nc3)nc(N3CC4C(N)C4C3)c12 (stereo not drawn) [4.337]	–	–	1 (≈ 1.73 µM)	≤0.5	–
CNc1cc(F)cc2c1[nH]c1nc(Oc3ccc4sc(C)nc4c3)nc(N3CC4CCC(N)C4C3)c12 (stereo not drawn) [4.322]	–	–	≤0.5	≤0.5	–
CNc1cc(F)cc2c1[nH]c1nc(Oc3cnc(C)nc3)nc(N3CC4(CCCN4)C3)c12 [4.119]	–	–	2 (≈ 4.6 µM)	≤0.5	–
CNc1cc(F)cc2c1[nH]c1nc(Oc3cnc(C(C)(C)C)nc3)nc(N3CCC4CNC4C3)c12 (stereo not drawn) [4.317]	2 (≈ 4.2 µM)	≤ 0.5	–	–	–
CNc1cc(F)cc2c1[nH]c1nc(Oc3cnc(C)nc3)nc(N3CCC4(CNC4)C3)c12 [4.125]	–	–	4 (≈ 9.21 µM)	≤0.5	–
CNc1cc(F)cc2c1[nH]c1nc(Oc3ccc(C(C)=O)nc3)nc(N3CC4CCNC4C3)c12 (stereo not drawn) [4.309]	–	–	≤0.5	≤0.5	–
CNc1cc(F)cc2c1[nH]c1nc(Oc3cncnc3)nc(N3CC4CC4(N)C3)c12 (stereo not drawn) [4.005]	≤ 0.5	≤ 0.5	–	–	–
COc1cccc2c1[nH]c1nc(Sc3cnc4ccc[n+]([O-])c4c3)nc(N3CC[C@@H](N)C3)c12 [1.78]	64 (≈ 139 µM)	≤ 0.5	–	–	–
CNc1cc(F)cc2c1[nH]c1nc(Oc3cncc(-c4cn[nH]c4)c3)nc(N3CC4C(N)C4C3)c12 (stereo not drawn) [4.206]	4 (≈ 8.48 µM)	≤ 0.5	–	–	–

Structure (SMILES)	MIC [1, 3] [µg/mL]	MIC [2, 3] [µg/mL]	MIC Ec [1, 4] [µg/mL]	MIC Sa [2, 5] [µg/mL]	other results
CNc1cc(F)cc2c1[nH]c1nc(Oc3cncc(Cl)c3)nc(N3CC4CC3CC4N)c12 (stereo not drawn) [4.276]	–	–	8 (≈ 17.6 µM)	≤0.5	–
CNc1cc(F)cc2c1[nH]c1nc(Oc3ccc4nc5n(c(=O)c4c3)CCC5)nc(N3CC4C[C@@H](N)C4C3)c12 (stereo partly drawn) [4.376]	> 16	> 16	–	–	–
CNc1cc(F)cc2c1[nH]c1nc(Oc3cnc(C(C)O)nc3)nc(C3CC4(CC[C@H]4N)C3)c12 (stereo partly drawn) [4.430]	≤ 0.5	≤ 0.5	–	–	–
CNc1cc(F)cc2c1[nH]c1nc(Oc3cncc(-c4nnnn4C)c3)nc(N3CC4CNC(C4)C3)c12 (stereo not drawn) [4.170]	> 16	2 (≈ 3.99 µM)	–	–	–
CNc1cc(F)cc2c1[nH]c1nc(Oc3cncc(-c4cncnc4)c3)nc(N3CC4C(N)C4C3)c12 (stereo not drawn) [4.205]	≤ 0.5	≤ 0.5	–	–	–
CNc1cc(F)cc2c1[nH]c1nc(Oc3cnc(C)nc3)nc(N3CCC4(CCNC4)C3)c12 (stereo not drawn) [4.126]	–	–	2 (≈ 4.46 µM)	≤0.5	–
CNc1cc(F)cc2c1[nH]c1nc(Oc3cnc(C)nc3)nc(N3CCC4CNC4C3)c12 (stereo not drawn) [4.081]	–	–	1 (≈ 2.3 µM)	≤0.5	–
CNc1ncc(Oc2nc(N3CC4CC(N)C4C3)c3c(n2)[nH]c2c(NC)cc(F)cc23)cn1 (stereo not drawn) [4.221]	2 (≈ 4.45 µM)	≤ 0.5	–	–	–
CCc1ncc(Oc2nc(N3C[C@H](N)C4(CC4)C3)c3c(n2)[nH]c2c(NC)cc(F)cc23)cn1 [4.259]	≤ 0.5	≤ 0.5	–	–	–
CNc1cc(F)cc2c1[nH]c1nc(Oc3cncc(-c4nnn(C)n4)c3)nc(N3CC4C(N)C4C3)c12 (stereo not drawn) [4.210]	–	–	1 (≈ 2.05 µM)	≤0.5	–
CNc1cc(F)cc2c1[nH]c1nc(Oc3cncc(C(N)=O)c3)nc(N3CC4CC(N)C4C3)c12 (stereo not drawn) [4.239]	–	–	8 (≈ 17.3 µM)	≤0.5	–
CCOC(=O)c1ncc(Oc2nc(N3CC4C[C@@H](N)C4C3)c3c(n2)[nH]c2c(NC)cc(F)cc23)cn1 (stereo partly drawn) [4.401]	≤ 0.5	≤ 0.5	–	–	–
CNc1cc(F)cc2c1[nH]c1nc(Oc3cnc(N)nc3)nc(N3CC(N)C4(CC4)C3)c12 (stereo not drawn) [4.177]	–	–	≤0.5	≤0.5	–
CNc1cc(F)cc2c1[nH]c1nc(Oc3cnc(C#N)c(C)c3)nc(N3CC4CC(N)C4C3)c12 (stereo not drawn) [4.323]	–	–	1 (≈ 2.18 µM)	≤0.5	–
CNc1cc(F)cc2c1[nH]c1nc(Oc3cncc(C#N)c3)nc(N3CC4C(N)C4C3)c12 (stereo not drawn) [4.050]	≤ 0.5	≤ 0.5	–	–	–
CNc1cccc2c1[nH]c1nc(Sc3cncc(S(=O)(=O)N(C)C)c3)nc(N3CC4C(N)C4C3)c12 (stereo not drawn) [1.22]	8 (≈ 15.7 µM)	1 (≈ 1.96 µM)	–	–	–
CNc1cc(F)c(F)c2c1[nH]c1nc(Oc3cnc(N)nc3)nc(N3CC4(CCC4N)C3)c12 (stereo not drawn) [5.07]	–	–	1 (≈ 2.21 µM)	≤0.5	–
CNc1cc(F)cc2c1[nH]c1nc(Oc3cnc(SC)nc3)nc(N3CC4C(N)C4C3)c12 (stereo not drawn) [4.193]	≤ 0.5	≤ 0.5	–	–	–
CNc1cc(F)cc2c1[nH]c1nc(Oc3cncc([S+](C)[O-])c3)nc(N3CC4C[C@@H](N)C4C3)c12 (stereo partly drawn) [4.353]	2 (≈ 4.15 µM)	≤ 0.5	–	–	–
CNc1cc(F)cc2c1[nH]c1nc(Oc3cnc4c(c3)C(=O)NC4)nc(N3CC4C[C@@H](N)C4C3)c12 (stereo partly drawn) [4.357]	4 (≈ 8.43 µM)	≤ 0.5	–	–	–
CNc1cc(F)cc2c1[nH]c1nc(Oc3cnc(N)nc3)nc(N3C4CCC3CC(N)C4)c12 (stereo not drawn) [4.183]	8 (≈ 17.8 µM)	1 (≈ 2.22 µM)	–	–	–
